Assay results as given in ChEMBL document CHEMBL1806355, “Synthesis and evaluation of 1-cyclopropyl-2-thioalkyl-8-methoxy fluoroquinolones” (2011).
Values after ≈ are worked out from the molar mass of the structure shown. Active and inactive are the calls of the source. The rule behind the calls is not given here.

What was measured:
[1] = tested on: Mycolicibacterium smegmatis; assay: Antibacterial activity against Mycobacterium smegmatis KD1163; assay type: functional
Escherichia coli [2] = assay: Antibacterial activity against tolC knockout Escherichia coli KD1397; assay type: functional
[3] = Inhibition of DNA gyrase
Escherichia coli [4] = assay: Antibacterial activity against Escherichia coli KD65; assay type: functional

inhibition [3]	Compound	MIC [1] [µg/mL]	MIC (Escherichia coli [2]) [µg/mL]	MIC (Escherichia coli [4]) [µg/mL]
–	CC1Sc2c(C(=O)O)c(=O)c3cc(F)c(N4CCNCC4)cc3n21 (stereo unspecified) [ULIFLOXACIN]	3.13 (≈ 8.96 µM)	0.016 (≈ 0.0458 µM)	0.062 (≈ 0.177 µM)
Active	CCSc1cc(=O)c2cc(F)c(N3C[C@@H]4CCCN[C@@H]4C3)c(OC)c2n1C1CC1	> 200	100 (≈ 239 µM)	> 200
Active	COc1c(N2C[C@@H]3CCCN[C@@H]3C2)c(F)cc2c(=O)cc(SC(C)C)n(C3CC3)c12	50 (≈ 116 µM)	50 (≈ 116 µM)	> 50
–	O=c1ccn(C2CC2)c2cc(N3CCNCC3)c(F)cc12	6.25 (≈ 21.8 µM)	1.56 (≈ 5.43 µM)	50 (≈ 174 µM)
–	CC1Sc2cc(=O)c3cc(F)c(N4CCNCC4)cc3n21 (stereo unspecified) [DESCARBOXYULIFLOXACIN]	200 (≈ 655 µM)	200 (≈ 655 µM)	> 200
Active	CCSc1c(C(=O)O)c(=O)c2cc(F)c(N3C[C@@H]4CCCN[C@@H]4C3)c(OC)c2n1C1CC1	50 (≈ 108 µM)	> 50	> 50
–	COc1c(N2C[C@@H]3CCCN[C@@H]3C2)c(F)cc2c(=O)c(C(=O)O)cn(C3CC3)c12 [MOXIFLOXACIN]	0.08 (≈ 0.199 µM)	0.004 (≈ 0.00996 µM)	0.156 (≈ 0.389 µM)
Active	CCSc1c(C(=O)O)c(=O)c2cc(F)c(N3CCNCC3)c(OC)c2n1C1CC1	> 200	12.5 (≈ 29.7 µM)	200 (≈ 475 µM)
–	O=C(O)c1cn(C2CC2)c2cc(N3CCNCC3)c(F)cc2c1=O [CIPROFLOXACIN]	0.156 (≈ 0.471 µM)	–	0.04 (≈ 0.121 µM)
–	COc1c(N2C[C@@H]3CCCN[C@@H]3C2)c(F)cc2c(=O)ccn(C3CC3)c12	> 200	100 (≈ 280 µM)	> 200

Compound	inhibition [3]	MIC [1] [µg/mL]	MIC (Escherichia coli [2]) [µg/mL]	MIC (Escherichia coli [4]) [µg/mL]
CCSc1cc(=O)c2cc(F)c(N3CCNCC3)c(OC)c2n1C1CC1	Active	> 50	25 (≈ 66.2 µM)	> 50
COc1c(N2CCNCC2)c(F)cc2c(=O)cc(SC(C)C)n(C3CC3)c12	Active	> 50	> 50	> 50
